Test results published in PubChem BioAssay AID2060889 (Molecular Pharmacology Branch, DTP, NCI, 2025).

Tested on: LG0567-F671-PDC complex spheroids viability
Test: Anticancer human tumor LG0567-F671-PDC patient-derived lung adenocarcinoma cell line growth inhibition [RAS]
Details: for IC50: curve of first compound; for viability, T/C: stronger effect = lower value; active means viability on the fitted dose curve at most 10% of control; inactive means the rest
How it was run: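 Agents were tested in combination matrices in half-log decrements from a top concentration at or near clinical Cmax (10 microM if undetermined). Targets were multi-cell spheroids of tumour lines plus HUVEC and MSC stromal cells.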

[1] = second compound 0.000949 µM, first compound 0.00316 µM
[2] = second compound 0.000949 µM, first compound 0.01 µM
[3] = second compound 0.000949 µM, first compound 0.0316 µM
[4] = second compound 0.000949 µM, first compound 0.1 µM
[5] = second compound 0.000949 µM, first compound 0.316 µM
[6] = second compound 0.000949 µM, first compound 1 µM
[7] = second compound 0.003 µM, first compound 0.00316 µM
[8] = second compound 0.003 µM, first compound 0.01 µM
[9] = second compound 0.003 µM, first compound 0.0316 µM
[10] = second compound 0.003 µM, first compound 0.1 µM
[11] = second compound 0.003 µM, first compound 0.316 µM
[12] = second compound 0.003 µM, first compound 1 µM
[13] = second compound 0.00949 µM, first compound 0.00316 µM
[14] = second compound 0.00949 µM, first compound 0.01 µM
[15] = second compound 0.00949 µM, first compound 0.0316 µM
[16] = second compound 0.00949 µM, first compound 0.1 µM
[17] = second compound 0.00949 µM, first compound 0.316 µM
[18] = second compound 0.00949 µM, first compound 1 µM
[19] = second compound 0.03 µM, first compound 0.00316 µM
[20] = second compound 0.03 µM, first compound 0.01 µM
[21] = second compound 0.03 µM, first compound 0.0316 µM
[22] = second compound 0.03 µM, first compound 0.1 µM
[23] = second compound 0.03 µM, first compound 0.316 µM
[24] = second compound 0.03 µM, first compound 1 µM
[25] = second compound 0.0949 µM, first compound 0.00316 µM
[26] = second compound 0.0949 µM, first compound 0.01 µM
[27] = second compound 0.0949 µM, first compound 0.0316 µM
[28] = second compound 0.0949 µM, first compound 0.1 µM
[29] = second compound 0.0949 µM, first compound 0.316 µM
[30] = second compound 0.0949 µM, first compound 1 µM
[31] = second compound 0.3 µM, first compound 0.00316 µM
[32] = second compound 0.3 µM, first compound 0.01 µM
[33] = second compound 0.3 µM, first compound 0.0316 µM
[34] = second compound 0.3 µM, first compound 0.1 µM
[35] = second compound 0.3 µM, first compound 0.316 µM
[36] = second compound 0.3 µM, first compound 1 µM
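Further: spheroids exposed to compound for seven days before readout.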
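Wherever IC50 is given: luminescence signal used as a proxy for viable cells.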

CC1(C)CCC(Nc2ncc(C(F)(F)F)c(-c3c[nH]c4c(P(C)(C)=O)c(C#N)ccc34)n2)CN1 (stereo unspecified) + CCn1c(-c2cccnc2C(C)OC)c2c3cc(ccc31)N1CCOC(CC(NC(=O)C(C(C)C)N(C)C(=O)C3(F)CCN(C(=O)C#CC(C)(C)N(C)C)CC3)C(=O)N3CCCC(N3)C(=O)OCC(C)(C)C2)C1
inactive: viability, T/C (second compound 0.000949 µM, first compound 0.000949 µM) 12.7% | viability, T/C (second compound 0.000949 µM, first compound 0.003 µM) 12.4% | viability, T/C (second compound 0.000949 µM, first compound 0.00949 µM) 13.2% | viability, T/C (second compound 0.000949 µM, first compound 0.03 µM) 13.5% | viability, T/C (second compound 0.000949 µM, first compound 0.0949 µM) 14.6% | viability, T/C (second compound 0.000949 µM, first compound 0.3 µM) 14.8% | viability, T/C (second compound 0.003 µM, first compound 0.000949 µM) 12.1% | viability, T/C (second compound 0.003 µM, first compound 0.003 µM) 13.2% | viability, T/C (second compound 0.003 µM, first compound 0.00949 µM) 12.7% | viability, T/C (second compound 0.003 µM, first compound 0.03 µM) 12.8% | viability, T/C (second compound 0.003 µM, first compound 0.0949 µM) 15.4% | viability, T/C (second compound 0.003 µM, first compound 0.3 µM) 14.4% | viability, T/C (second compound 0.00949 µM, first compound 0.000949 µM) 10.9% | viability, T/C (second compound 0.00949 µM, first compound 0.003 µM) 11.9% | viability, T/C (second compound 0.00949 µM, first compound 0.00949 µM) 12.1% | viability, T/C (second compound 0.00949 µM, first compound 0.03 µM) 13.2% | viability, T/C (second compound 0.00949 µM, first compound 0.0949 µM) 14% | viability, T/C (second compound 0.00949 µM, first compound 0.3 µM) 15.2% | viability, T/C (second compound 0.03 µM, first compound 0.000949 µM) 10.8% | viability, T/C (second compound 0.03 µM, first compound 0.003 µM) 12.1% | viability, T/C (second compound 0.03 µM, first compound 0.00949 µM) 12.3% | viability, T/C (second compound 0.03 µM, first compound 0.03 µM) 12.8% | viability, T/C (second compound 0.03 µM, first compound 0.0949 µM) 13.3% | viability, T/C (second compound 0.03 µM, first compound 0.3 µM) 13.2% | viability, T/C (second compound 0.0949 µM, first compound 0.000949 µM) 10.3% | viability, T/C (second compound 0.0949 µM, first compound 0.003 µM) 9.49% | viability, T/C (second compound 0.0949 µM, first compound 0.00949 µM) 11.1% | viability, T/C (second compound 0.0949 µM, first compound 0.03 µM) 10.3% | viability, T/C (second compound 0.0949 µM, first compound 0.0949 µM) 11.1% | viability, T/C (second compound 0.0949 µM, first compound 0.3 µM) 10.7%
active: viability, T/C (second compound 0.3 µM, first compound 0.000949 µM) 7.95% | viability, T/C (second compound 0.3 µM, first compound 0.003 µM) 7.87% | viability, T/C (second compound 0.3 µM, first compound 0.00949 µM) 7.86% | viability, T/C (second compound 0.3 µM, first compound 0.03 µM) 8.99% | viability, T/C (second compound 0.3 µM, first compound 0.0949 µM) 9.92% | viability, T/C (second compound 0.3 µM, first compound 0.3 µM) 10.7%
< 0.949 nM: IC50 (second compound 0.000949 µM) | IC50 (second compound 0.003 µM) | IC50 (second compound 0.00949 µM) | IC50 (second compound 0.03 µM) | IC50 (second compound 0.0949 µM) | IC50 (second compound 0.3 µM)

CCN1CCN(Cc2ccc(Nc3ncc(F)c(-c4cc(F)c5nc(C)n(C(C)C)c5c4)n3)nc2)CC1 + CCn1c(-c2cccnc2C(C)OC)c2c3cc(ccc31)N1CCOC(CC(NC(=O)C(C(C)C)N(C)C(=O)C3(F)CCN(C(=O)C#CC(C)(C)N(C)C)CC3)C(=O)N3CCCC(N3)C(=O)OCC(C)(C)C2)C1
< 3.16 nM: IC50 (second compound 0.000949 µM) | IC50 (second compound 0.003 µM) | IC50 (second compound 0.00949 µM) | IC50 (second compound 0.03 µM) | IC50 (second compound 0.0949 µM) | IC50 (second compound 0.3 µM)
inactive: viability, T/C [1] 15% | viability, T/C [2] 15.8% | viability, T/C [3] 14.2% | viability, T/C [4] 14.7% | viability, T/C [5] 18.1% | viability, T/C [6] 17.5% | viability, T/C [7] 14.2% | viability, T/C [8] 16.5% | viability, T/C [9] 13% | viability, T/C [10] 15.9% | viability, T/C [11] 18.7% | viability, T/C [12] 19.9% | viability, T/C [13] 15.2% | viability, T/C [14] 13.4% | viability, T/C [15] 14.1% | viability, T/C [16] 14.8% | viability, T/C [17] 16.5% | viability, T/C [18] 17.4% | viability, T/C [19] 13.1% | viability, T/C [20] 12.9% | viability, T/C [21] 13.7% | viability, T/C [22] 13.9% | viability, T/C [23] 16.8% | viability, T/C [24] 16.5% | viability, T/C [25] 16% | viability, T/C [26] 13.3% | viability, T/C [27] 11.8% | viability, T/C [28] 12.2% | viability, T/C [29] 15% | viability, T/C [30] 15.1% | viability, T/C [31] 10.5% | viability, T/C [32] 9.89% | viability, T/C [33] 10.4% | viability, T/C [34] 10.7% | viability, T/C [35] 13.8% | viability, T/C [36] 11.4%

CCN1CCN(Cc2ccc(Nc3ncc(F)c(-c4cc(F)c5nc(C)n(C(C)C)c5c4)n3)nc2)CC1 + CCn1c(-c2cc(N3CCN(C)CC3)cnc2C(C)OC)c2c3cc(ccc31)-c1csc(n1)CC(NC(=O)C1CC1C)C(=O)N1CCCC(N1)C(=O)OCC(C)(C)C2
< 3.16 nM: IC50 (second compound 0.000949 µM) | IC50 (second compound 0.003 µM) | IC50 (second compound 0.00949 µM) | IC50 (second compound 0.03 µM) | IC50 (second compound 0.0949 µM) | IC50 (second compound 0.3 µM)
inactive: viability, T/C [1] 27.4% | viability, T/C [2] 24.3% | viability, T/C [3] 23.6% | viability, T/C [4] 23.9% | viability, T/C [5] 27.4% | viability, T/C [6] 30.4% | viability, T/C [7] 11.5% | viability, T/C [8] 11.9% | viability, T/C [9] 10.8% | viability, T/C [10] 11.4% | viability, T/C [11] 14.7% | viability, T/C [12] 21.5%
active: viability, T/C [13] 6.37% | viability, T/C [14] 6.88% | viability, T/C [15] 6.24% | viability, T/C [16] 6.47% | viability, T/C [17] 7.63% | viability, T/C [18] 14.4% | viability, T/C [19] 4.36% | viability, T/C [20] 4.91% | viability, T/C [21] 4.15% | viability, T/C [22] 4.09% | viability, T/C [23] 5.04% | viability, T/C [24] 8.84% | viability, T/C [25] 3.5% | viability, T/C [26] 3.29% | viability, T/C [27] 2.92% | viability, T/C [28] 2.88% | viability, T/C [29] 3.8% | viability, T/C [30] 6% | viability, T/C [31] 3.07% | viability, T/C [32] 2.94% | viability, T/C [33] 2.53% | viability, T/C [34] 2.95% | viability, T/C [35] 3.25% | viability, T/C [36] 4.38%
